Values after ≈ are worked out from the molar mass of the structure shown. Values joined by “and” are separate entries in the source; they are usually repeats but may differ in a detail not shown here. Equal entries are not always repeated.
Key:
L1210 leukemia = assay: Lymphoid Leukemia L1210, survival of tumored mice; type: in vivo, CD2F1 mice; details: Mus musculus, L1210, ip, 720 h
Procedure, shortened: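 Male CD2 F1 mice, six per group, received 10^5 L1210 cells i.p. on day 0. Compounds in hydroxypropylcellulose, saline/Tween 80 or saline were given i.p. at various doses once daily on days 1-9, with vehicle controls.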

[1] = tested on: human colon carcinoma cells HCT-15; assay: Human colon tumor test in vitro, HCT-15 cell growth inhibition; type: cell-based; details: for IC50: Homo sapiens, HCT-15, 72 h, read-out: in vitro HCT-15 ID50 (50 percent inhibition of number of doublings); for in vitro HCT-15 ID50 (50 percent inhibition of number of doublings): HCT-15 cells, compound day 1 to day 4, 4320 min
Procedure, shortened: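 HCT-15 human colon adenocarcinoma cells in RPMI 1640 with 10% heat-inactivated FCS, compound added on day 1 and cells counted by hemocytometer on day 4. ID50 is the concentration (μg/ml) halving the number of doublings, from log-log dose-response plots.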

human colon tumor HCT-15 = assay: Human colon tumor HCT-15 in athymic mice; type: in vivo, Swiss NU/NU athymic mice; details: for Average Tumor Weight, Day 7 (day treatment was started) / Average Tumor Weight, Day 21 / Net Tumor Weight gain, Day 21 / Tumor Growth Inhibition, Day 21: 5 days from day 7; for toxicity: 40 mg/kg i.p., athymic mice
Protocol: The compounds of Example 1 and 91 were also tested for effectiveness against a human colon tumor implanted in athymic mice.
The animals used were Swiss NU/NU athymic mice, weighing 20-22 g each at the start of the test. The test group consisted of twelve mice, seven males and five females. The HCT-15 tumor cell line, derived from a patient with adenocarcinoma of the colon, was maintained in culture. The tumor was implanted in each of the test mice by the subcutaneous injection in the flank region of 0.2 ml of physiological saline containing 10^7 HCT-15 cultured cells. Tumors appeared within 72 hours and treatment started one week after tumor inoculation.
Test compounds, suspended in methocel (0.5% in water) or dissolved in water, were injected intraperitoneally once daily for five consecutive days starting on day seven relative to the day of tumor inoculation (day 0). The body weight and the size of the tumor were determined daily. Tumor size was determined by two-dimensional caliper measurements. Tumor weight was estimated from the formula: [formula] tumor weight in which 1=length and w=width of the tumor in mm. The net tumor weight was determined by subtracting from the actual tumor weight at the time of evaluation the initial estimated tumor weight at the time treatment was started (day 7). Drug effectiveness was assessed on the basis of inhibition of the gain in net tumor weight in the treated (T) compared to that of the control (C) mice. Percent tumor growth inhibition was calculated by the formula: [formula]

colon tumors = details: in vivo; cited from earlier work
melanotic melanoma B16 = assay: Melanotic Melanoma B16 test, survival of tumored mice; type: in vivo, B6C3F1 mice; details: for T/C × 100 (median survival time): 9 days, 2 tests
Protocol: The efficacy of the compounds of this invention against the transplanted mouse tumors was evaluated in test systems currently in use at the National Cancer Institute for the detection and assessment of anticancer activity. […] J. Cancer, 17, 129-142, (1981); Venditti, J. M., Seminars in Oncology, 8 (4) (1981); Goldin, A. and J. M. Venditti, in Recent Results in Cancer Research, 70, S. K. Carter and Y. Sakurai, Eds., Springer-Verlag, Berlin/Heidelberg, 1980].
The animals used were B6 C3 F1 mice, all of one sex, weighing a minimum of 18 g for males and 17 g for females and all within a 4 g weight range at the start of the test. The test group comprised 9 or 10 mice. The tumor was implanted in each of the test mice by the subcutaneous injection of 0.5 ml of a tumor homogenate prepared by homogenizing a 1 g portion of melanotic melanoma in 10 ml of cold physiological saline. The test compounds suspended in hydroxypropylcellulose were administered intraperitoneally at various doses once daily for nine consecutive days starting on day one relative to the day of tumor inoculation (day 0). The control mice received injections of hydroxypropylcellulose vehicle only. The mice were weighted and survivors were recorded on a regular basis for 60 days. The median survival times and the ratio of the median survival times for treated (T) to control (C) mice were calculated. The median survival time of the nontreated tumored mice ranged from 15 to 17 days. Drug effectiveness was assessed on the basis of the survival time. Results were expressed as a percentage of the control survival time (Survival Time T/C ×100%). The criterion for effectiveness was determined by: T/C ×100 ≥125 percent.

NF mouse sarcoma = details: in vitro; cited from earlier work
liver tissue = details: cited from earlier work

O=c1[nH]cc(F)c(=O)[nH]1 [5-Fluorouracil, reference compound]
response vs control in vivo at 16 mg/kg (L1210 leukemia; read-out: L1210 Leukemia % T/C (median survival time)): 228%
IC50 [1]: 0.27 µg/mL (≈ 2.08 µM)
effectiveness (human colon tumor HCT-15; 20 mg/kg i.p.): ineffective
Average Tumor Weight, Day 7 (day treatment was started) (human colon tumor HCT-15; 20 mg/kg i.p. once daily): 56.7 mg
Average Tumor Weight, Day 21 (human colon tumor HCT-15; 20 mg/kg i.p. once daily): 421.7 mg
Net Tumor Weight gain, Day 21 (human colon tumor HCT-15; 20 mg/kg i.p. once daily): 365 mg
Tumor Growth Inhibition, Day 21 (human colon tumor HCT-15; 20 mg/kg i.p. once daily): 0%
toxicity (human colon tumor HCT-15): Toxic
toxicity (human colon tumor HCT-15; listed as 5-Fluorouacil): toxic
effectiveness in treatment of colon tumors in man (colon tumors): not consistently effective

Cc1c(-c2ccc(C3CCCCC3)cc2)nc2ccc(F)cc2c1C(=O)[O-].[Na+] [Example 91, Sodium 2-(4-Cyclohexylphenyl)-6-fluoro-3-methylquinoline-4-carboxylate]
response vs control in vivo at 40 mg/kg (L1210 leukemia; read-out: L1210 Leukemia % T/C (median survival time), 40 mg/kg i.p., marked * (not explained)): 140%
response vs control in vivo at 100 mg/kg (L1210 leukemia; read-out: L1210 Leukemia % T/C (median survival time), 100 mg/kg i.p., nonoptimal Q1DX9 instead of Q3DX9): 103%
IC50 [1]: 0.04 µg/mL
Average Tumor Weight, Day 7 (day treatment was started) (human colon tumor HCT-15; 10 mg/kg i.p. once daily): 56.8 mg
Average Tumor Weight, Day 21 (human colon tumor HCT-15; 10 mg/kg i.p. once daily): 322.8 mg
Net Tumor Weight gain, Day 21 (human colon tumor HCT-15; 10 mg/kg i.p. once daily): 266.0 mg
Tumor Growth Inhibition, Day 21 (human colon tumor HCT-15; 10 mg/kg i.p. once daily): 10.0%
Average Tumor Weight, Day 7 (day treatment was started) (human colon tumor HCT-15; 20 mg/kg i.p. once daily): 56.2 mg
Average Tumor Weight, Day 21 (human colon tumor HCT-15; 20 mg/kg i.p. once daily): 245.1 mg
Net Tumor Weight gain, Day 21 (human colon tumor HCT-15; 20 mg/kg i.p. once daily): 188.9 mg
Tumor Growth Inhibition, Day 21 (human colon tumor HCT-15; 20 mg/kg i.p. once daily): 35.7%
Average Tumor Weight, Day 7 (day treatment was started) (human colon tumor HCT-15; 40 mg/kg i.p. once daily): 56.8 mg
Average Tumor Weight, Day 21 (human colon tumor HCT-15; 40 mg/kg i.p. once daily): 256.9 mg
Net Tumor Weight gain, Day 21 (human colon tumor HCT-15; 40 mg/kg i.p. once daily): 200.1 mg
Tumor Growth Inhibition, Day 21 (human colon tumor HCT-15; 40 mg/kg i.p. once daily): 32.0%

Cc1c(-c2ccc(C3CCCCC3)cc2)nc2ccc(F)cc2c1C(=O)O [Example 1, 2-(4-Cyclohexylphenyl)-6-fluoro-3-methylquinoline-4-carboxylic acid]
T/C × 100 (median survival time) (melanotic melanoma B16; 25 mg/kg i.p. once daily): 127% and 125%
T/C × 100 (median survival time) (melanotic melanoma B16; 50 mg/kg i.p. once daily): 148% and 138%
T/C × 100 (median survival time) (melanotic melanoma B16; 100 mg/kg i.p. once daily): 145% and 155%
T/C × 100 (median survival time) (melanotic melanoma B16; 200 mg/kg i.p. once daily): 145% and 150%
T/C × 100 (median survival time) (melanotic melanoma B16; 400 mg/kg i.p. once daily): 131% and 179%
effectiveness against B16 melanoma in mice (melanotic melanoma B16; criterion T/C × 100 ≥125 percent): effective against the B16 melanoma in mice
response vs control in vivo at 200 mg/kg (L1210 leukemia; 200 mg/kg i.p., read-out: L1210 Leukemia % T/C (median survival time)): 189%
in vitro HCT-15 ID50 (50 percent inhibition of number of doublings) [1]: 0.05 µg/mL
Average Tumor Weight, Day 7 (day treatment was started) (human colon tumor HCT-15; 50 mg/kg i.p. once daily): 56.3 mg
Average Tumor Weight, Day 21 (human colon tumor HCT-15; 50 mg/kg i.p. once daily): 252.9 mg
Net Tumor Weight gain, Day 21 (human colon tumor HCT-15; 50 mg/kg i.p. once daily): 196.6 mg
Tumor Growth Inhibition, Day 21 (human colon tumor HCT-15; 50 mg/kg i.p. once daily): 33.1%
Average Tumor Weight, Day 7 (day treatment was started) (human colon tumor HCT-15; 100 mg/kg i.p. once daily): 56.6 mg
Average Tumor Weight, Day 21 (human colon tumor HCT-15; 100 mg/kg i.p. once daily): 212.9 mg
Net Tumor Weight gain, Day 21 (human colon tumor HCT-15; 100 mg/kg i.p. once daily): 156.3 mg
Tumor Growth Inhibition, Day 21 (human colon tumor HCT-15; 100 mg/kg i.p. once daily): 46.8%
Average Tumor Weight, Day 7 (day treatment was started) (human colon tumor HCT-15; 200 mg/kg i.p. once daily): 56.8 mg
Average Tumor Weight, Day 21 (human colon tumor HCT-15; 200 mg/kg i.p. once daily): 156.3 mg
Net Tumor Weight gain, Day 21 (human colon tumor HCT-15; 200 mg/kg i.p. once daily): 99.4 mg
Tumor Growth Inhibition, Day 21 (human colon tumor HCT-15; 200 mg/kg i.p. once daily): 66.2%

O=C(O)c1cc(-c2ccccc2)nc2ccccc12 [cinchophen, 2-phenyl-4-quinoline carboxylic acid]
tumoricidal effect (NF mouse sarcoma): no tumoricidal effect
degeneration of liver tissue (liver tissue): can produce a degeneration of liver tissue of a possible precancerous nature

N.N.[Cl][Pt][Cl] [Cisplatin, reference compound]
T/C × 100 (median survival time) (melanotic melanoma B16; 1 mg/kg i.p. once daily): 175%
T/C × 100 (median survival time) (melanotic melanoma B16; 2 mg/kg i.p. once daily): 212% and 136%
in vitro HCT-15 ID50 (50 percent inhibition of number of doublings) [1]: 0.66 µg/mL

From patent US5032597A, “Method of using phenylquinolinecarboxylic acids and derivatives for lymthoid leukemia treatment in a mammal” (priority 1987, dated 1991)
